Results reported in patent publication US20140315886A1, “QUINAZOLINES AS THERAPEUTIC COMPOUNDS AND RELATED METHODS OF USE” (OTSUKA PHARMACEUTICAL CO., LTD., priority 2011, published 2014).

These compounds were tested against T1, purified STEP46 enzyme (Homo sapiens, UniProt P54829) (assay: STEP46 biochemical assay (DiFMUP fluorescence phosphatase assay)). Settings: DiFMUP 10 μM, read-out: STEP IC50.
T1 sequence (P54829 197-565 limits assumed): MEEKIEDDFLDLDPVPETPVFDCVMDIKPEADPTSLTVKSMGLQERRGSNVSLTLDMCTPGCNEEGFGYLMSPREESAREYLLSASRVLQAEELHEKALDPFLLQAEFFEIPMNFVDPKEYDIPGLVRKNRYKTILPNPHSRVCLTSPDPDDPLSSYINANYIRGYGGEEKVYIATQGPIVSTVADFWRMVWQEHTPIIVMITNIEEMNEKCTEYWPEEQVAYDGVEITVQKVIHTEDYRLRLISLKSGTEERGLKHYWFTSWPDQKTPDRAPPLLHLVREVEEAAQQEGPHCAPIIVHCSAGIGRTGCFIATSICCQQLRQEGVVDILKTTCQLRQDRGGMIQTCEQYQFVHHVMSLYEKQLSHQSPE
How it was run: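 Purified human STEP46 preincubated 30 min at room temperature with compounds in Hepes/DTT/Brij35 buffer (2% DMSO final), then reacted with 10 μM DiFMUP for 90 min at 27°C; fluorescence read at 360/460 nm. IC50 from four-parameter fit; activation shown as negative % inhibition at 25, 50, 100 uM.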

| SMILES | IC50 [µM] |
| --- | --- |
| CNc1nc(-c2cccnc2)nc2ccc(-c3ccc(C(F)(F)F)cc3C(F)(F)F)cc12 [Compound 202] | > 10 |
| Clc1ccc2c(c1)CCN2c1nc(-c2cccnc2)nc2cc(-c3ccccc3Cl)ccc12 [Compound 111] | > 10 |
| CNc1nc(-c2cccnc2)nc2cc(-c3ccco3)ccc12 [Compound 317] | > 10 |
| CN(C)CCCN(C)c1nc(-c2cccnc2)nc2cc(-c3cc(F)ccc3F)ccc12 [Compound 314] | > 10 |
| CNc1nc(-c2cccnc2)nc2c(OC)cc(-c3ccc(F)c(F)c3)cc12 [Compound 255] | 1 to 10 |
| CNc1nc(-c2cccnc2)nc2c(F)c(-c3ccc(F)c(F)c3)ccc12 [Compound 517] | 1 to 10 |
| CNc1nc(-c2cccnc2)nc2cc(F)c(-c3ccc(C#N)cc3)cc12 [Compound 592] | 1 to 10 |
| Cc1ccc2c(c1)N(c1nc(-c3cccnc3)nc3ccc(-c4cccc(F)c4F)cc13)CC2 [Compound 446] | 1 to 10 |
| CNc1nc(-c2cccnc2)nc2cc(-c3ccc(C)o3)ccc12 [Compound 273] | 1 to 10 |
| CNc1nc(-c2cccnc2)nc2cc(C)c(-c3cccc(F)c3)cc12 [Compound 299] | 1 to 10 |
| CNc1nc(-c2cccnc2)nc2c(F)c(-c3ccc(C)cc3)ccc12 [Compound 526] | 1 to 10 |
| CNc1nc(-c2cccnc2)nc2c(F)c(-c3cccc(C#N)c3)ccc12 [Compound 511] | 1 to 10 |
| COc1ccc2nc(-c3cccnc3)nc(Nc3ccc(C#N)cn3)c2c1 [Compound 46] | 1 to 10 |
| CNc1nc(-c2cccnc2)nc2c(F)cc(-c3ccc(OC)cc3)cc12 [Compound 573] | 1 to 10 |
| CN(C)c1nc(-c2cccnc2)nc2cc(-c3cc(F)c(F)c(F)c3)ccc12 [Compound 313] | 1 to 10 |
| Fc1ccc(-c2ccc3c(N4CCc5cc(Cl)ccc54)nc(-c4cccnc4)nc3c2)cc1 [Compound 97] | 1 to 10 |
| c1ccc(CCNc2nc(-c3cccnc3)nc3ccc(-c4cc5ccccc5o4)cc23)nc1 [Compound 345] | 1 to 10 |
| CNc1nc(-c2cccnc2)nc2ccc(-c3c(F)ccc(F)c3F)cc12 [Compound 456] | 1 to 10 |
| CNc1nc(-c2cnccn2)nc2cc(-c3cc(F)cc(F)c3)ccc12 [Compound 398] | 1 to 10 |
| CNc1nc(-c2cccnc2)nc2ccc(-c3cccc(C)c3Cl)cc12 [Compound 268] | > 10 |

| SMILES | IC50 [µM] |
| --- | --- |
| CNc1nc(-c2cccnc2)nc2cc(-c3cccc(F)c3F)c(F)cc12 [Compound 557] | 1 to 10 |
| Cc1ccc2c(c1)CCN2c1nc(-c2cccnc2)nc2ccc(-c3ccc(F)cc3F)cc12 [Compound 73] | 1 to 10 |
| Clc1ccc2c(N3CCc4cccnc43)nc(-c3cccnc3)nc2c1 [Compound 62] | 1 to 10 |
| CNc1nc(-c2cccnc2)nc2c(F)cc(-c3cc(F)cc(F)c3)cc12 [Compound 569] | 1 to 10 |
| Cc1c(-c2cccc(C#N)c2)ccc2c(N(C)C)nc(-c3cccnc3)nc12 [Compound 290] | > 10 |
| COc1ccc2nc(-c3cccnc3)nc(Nc3ccc4nc(C)oc4c3)c2c1 [Compound 39] | 1 to 10 |
| CNc1nc(-c2cncnc2)nc2cc(-c3cc(F)ccc3F)ccc12 [Compound 155] | 1 to 10 |
| Cc1ccc2c(c1)CCN2c1nc(-c2cccnc2)nc2ccc(-c3ccc(F)cc3)cc12 [Compound 79] | 1 to 10 |
| CNc1nc(-c2cccnc2)nc2cc(-c3c(F)ccc(F)c3C)ccc12 [Compound 323] | > 10 |
| CNc1nc(-c2cccnc2)nc2ccc(-c3cccc(CC(N)=O)c3)cc12 [Compound 166] | > 10 |
| CNc1nc(-c2cccnc2)nc2ccc(-c3ccc(F)cc3C)cc12 [Compound 247] | 1 to 10 |
| CNc1nc(-c2cccnc2)nc2ccc(-c3cc(Cl)ccc3F)cc12 [Compound 240] | 1 to 10 |
| Clc1ccc2nc(-c3cccnc3)nc(N3CCc4cccnc43)c2c1 [Compound 61] | 1 to 10 |
| Fc1ccc(-c2ccc3nc(-c4cccnc4)nc(N4CCc5cc(Cl)ccc54)c3c2)cc1 [Compound 86] | 1 to 10 |
| CNc1nc(-c2cccnc2)nc2c(F)c(-c3ccccc3F)ccc12 [Compound 513] | 1 to 10 |
| CNc1nc(-c2cccnc2)nc2c(OC)cc(-c3ccccc3F)cc12 [Compound 254] | 1 to 10 |
| CNc1nc(-c2cccnc2C)nc2ccc(-c3cccc(F)c3)cc12 [Compound 220] | 1 to 10 |
| CNc1nc(-c2cccnc2)nc2cc(-c3ccccc3F)c(F)cc12 [Compound 552] | 1 to 10 |
| CNc1nc(-c2cccnc2)nc2c(-c3cc(F)ccc3F)ccc(OC)c12 [Compound 497] | 1 to 10 |
| CNc1nc(-c2cccnc2)nc2c(F)c(-c3cccc(F)c3F)ccc12 [Compound 515] | 1 to 10 |

The next lines start with the values.

| IC50 [µM] | SMILES |
| --- | --- |
| 1 to 10 | CNC(=O)COc1cc(F)cc(-c2ccc3c(NC)nc(-c4cccnc4)nc3c2)c1 [Compound 142] |
| 1 to 10 | CNc1nc(-c2cccnc2)nc2c(F)c(-c3ccc(F)cc3)ccc12 [Compound 505] |
| 1 to 10 | Clc1ccc2c(c1)CCN2c1nc(-c2cccnc2)nc2cc(-c3ccncc3)ccc12 [Compound 100] |
| 1 to 10 | CNc1nc(-c2cccnc2)nc2c(F)c(-c3ccoc3)ccc12 [Compound 530] |
| 1 to 10 | CCOc1ccc2nc(-c3cccnc3)nc(Nc3cncc(F)c3)c2c1 [Compound 47] |
| 1 to 10 | CC(=O)Nc1cccc(-c2ccc3c(N4CCc5cc(Cl)ccc54)nc(-c4cccnc4)nc3c2)c1 [Compound 102] |
| 1 to 10 | CNc1nc(-c2cccnc2)nc2c(Cl)cc(-c3cccc(F)c3)cc12 [Compound 264] |
| 1 to 10 | CNc1nc(-c2cccnc2)nc2cc(-c3ccsc3)ccc12 [Compound 320] |
| 1 to 10 | CNc1nc(-c2cccnc2)nc2c(OC)cc(-c3cccc(F)c3)cc12 [Compound 253] |
| 1 to 10 | Fc1ccc2c(c1)N(c1nc(-c3cccnc3)nc3ccc(Br)cc13)CC2 [Compound 22] |
| 1 to 10 | Fc1ccc(-c2ccc3nc(-c4cccnc4)nc(Nc4ccc(F)cn4)c3c2)cc1 [Compound 436] |
| 1 to 10 | CC(Nc1nc(-c2cccnc2)nc2ccc(-c3cccc(F)c3)cc12)c1ccccc1 (centres unmarked) [Compound 604] |
| 1 to 10 | CNc1nc(-c2cccnc2)nc2c(F)c(-c3cc(F)ccc3F)ccc12 [Compound 514] |
| < 1 | CNc1nc(-c2cccnc2)nc2ccc(-c3cccc(-c4nccs4)c3)cc12 [Compound 473] |
| 1 to 10 | CC(Nc1nc(-c2cccnc2)nc2cc(-c3cc(F)ccc3F)ccc12)c1ccccn1 (centres unmarked) [Compound 368] |
| 1 to 10 | CNc1nc(-c2cccnc2)nc2c(F)cc(-c3cccc(F)c3)cc12 [Compound 563] |
| 1 to 10 | CNc1nc(-c2cccnc2)nc2cc(-c3ccc(OC)cc3F)ccc12 [Compound 218] |
| < 1 | Cn1ccc2cc(-c3ccc4nc(-c5cccnc5)nc(NCc5ccccn5)c4c3)ccc21 [Compound 342] |
| < 1 | Clc1ccc2c(c1)CCN2c1nc(-c2cccnc2)nc2cc(-c3cccnc3)ccc12 [Compound 99] |
| < 1 | CNc1nc(-c2cccnc2)nc2c(F)c(-c3cc(F)c(F)c(F)c3)ccc12 [Compound 520] |
| < 1 | COc1ccc2c(c1)CCN2c1nc(-c2cccnc2)nc2ccc(-c3ccc(F)cc3)cc12 [Compound 90] |
| < 1 | CNc1nc(-c2cccnc2)nc2ccc(-c3ccc4c(c3)oc(=O)n4C)cc12 [Compound 470] |
